# Results taken from article PMC2907470 (Nature chemical biology, 2010).
# How the values were obtained:
# Scn-Ngal [1] = target: T1, Scn-Ngal (Homo sapiens, UniProt P80188); assay: Release of ligands from Scn-Ngal on acidification; type: binding; details: acidification from neutral pH; n = 3
# Scn-Ngal [2] = target: T1, Scn-Ngal; type: binding; details: for iron retention by Scn-Ngal, dose-response: urinary compounds 0.5–100 µM, Scn-Ngal 10 µM
# C57BL/6 mice = type: in vivo, mouse; details: for cleared in the urine: by 180 min after introduction; for organ distribution: i.p., 20 and 180 min
# [3] = Stability of catechol in solution monitored by NMR; details: monitored for 20 hrs by NMR, D2O
# Scn-Ngal [4] = target: T1, Scn-Ngal; assay: Fluorescence quenching analysis of Scn-Ngal with free catechol ligands; type: binding; details: with iron III versus catechol itself
# [5] = target: Scn-Ngal K125A, K134A mutant (Homo sapiens, UniProt P80188, K145A/K154A); assay: 55Fe retention by Scn-Ngal K125A, K134A mutant; type: binding; details: K125 and K134 mutated to alanine, versus wild type
# Scn-Ngal K125A, K134A mutant, sequence (P80188 21-198 K145A/K154A): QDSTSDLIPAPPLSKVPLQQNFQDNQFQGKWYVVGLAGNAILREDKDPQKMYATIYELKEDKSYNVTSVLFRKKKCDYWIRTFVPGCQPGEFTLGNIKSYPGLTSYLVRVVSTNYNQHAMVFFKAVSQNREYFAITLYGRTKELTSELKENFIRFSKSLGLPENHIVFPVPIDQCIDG
# [6] = tested on: embryonic kidney FoxD1+ stromal cells; assay: Capture of 55Fe from Scn-Ngal:catechol:55Fe by kidney stromal cells; type: cell-based, mouse; details: 37°C, bafilomycin 0.15 nmole, 3 hrs
# LLCPK cells = assay: Iron responsive 5'IRE-YFP reporter in LLCPK cells; type: cell-based; details: 100 or 500 µg/ml, 16 hrs, compared to DMEM alone
# [7] = tested on: kidney proximal tubule LLCPK1 cells; assay: Capture of 55Fe from Scn-Ngal:catechol:55Fe by LLCPK cells; type: cell-based; details: 37°C
# [8] = Generation of hydroxyl radicals; type: biochemical; details: 10 µM FeCl3, 30 µM catechols, 2 mM H2O2; Scn-Ngal 10 µM where added
molecule,measurement,setting,value
"Cc1cccc(O)c1O [3-methylcatechol, 3-methylbenzene-1,2-diol]",pH at which Scn-Ngal:ligand:FeIII complex dissociated,Scn-Ngal [1],6.0
same,"iron retention by Scn-Ngal, dose-response",Scn-Ngal [2],saturable iron retention
"Cc1ccc(O)c(O)c1 [4-methylcatechol, 4-methylbenzene-1,2-diol]","iron retention by Scn-Ngal, dose-response",Scn-Ngal [2],saturable iron retention
"Oc1ccccc1O [Catechol, benzene-1,2-diol]",cleared in the urine,C57BL/6 mice,80.56±8.8%
same,stability in solution,[3],stable in solution
same,pH at which Scn-Ngal:ligand:FeIII complex dissociated,Scn-Ngal [1],6.0
same,increase in binding affinity in the presence of iron III,Scn-Ngal [4],100 fold
same,"iron retention by Scn-Ngal, dose-response",Scn-Ngal [2],saturable iron retention
"O=C(N[C@H]1COC(=O)[C@@H](NC(=O)c2cccc(O)c2O)COC(=O)[C@@H](NC(=O)c2cccc(O)c2O)COC1=O)c1cccc(O)c1O [Ent, reference compound]",association of urinary catechols with Scn-Ngal in presence of competitor,Scn-Ngal [2]; 50 fold molar excess of Ent presaturated with non-radioactive iron,blocked
O=C(N[C@H]1COC(=O)[C@@H](NC(=O)c2cccc([O-])c2[O-])COC(=O)[C@@H](NC(=O)c2cccc([O-])c2[O-])COC1=O)c1cccc([O-])c1[O-].[Fe+3] [Ent:Fe],capture of siderophore:Fe by mutant Scn-Ngal,[5],ineffective
"Oc1cccc(O)c1O [Pyrogallol, benzene-1,2,3-triol]",pH at which Scn-Ngal:ligand:FeIII complex dissociated,Scn-Ngal [1],< 4
same,"iron retention by Scn-Ngal, dose-response",Scn-Ngal [2],saturable iron retention
bafilomycin [reference compound],55Fe uptake,[6],inhibited
"transferrin:iron: iron-loaded transferrin, comparator [reference compound]",organ distribution,C57BL/6 mice,accumulated in the bone marrow
"Scn-Ngal:catechol:Fe: complex of the lipocalin Scn-Ngal with catechol and iron (protein, UniProt P80188 21-198, looked up, complex with catechol and iron) Neutrophil …: QDSTSDLIPAPPLSKVPLQQNFQDNQFQGKWYVVGLAGNAILREDKDPQKMYATIYELKEDKSYNVTSVLFRKKKCDYWIRTFVPGCQPGEFTLGNIKSYPGLTSYLVRVVSTNYNQHAMVFFKKVSQNREYFKITLYGRTKELTSELKENFIRFSKSLGLPENHIVFPVPIDQCIDG",cleared in the urine,C57BL/6 mice,56.4±6.7%
same,organ distribution,C57BL/6 mice,targeted the kidney
same,iron dependent YFP probe,LLCPK cells,activated
same,55Fe uptake,[7],Uptake occurred
same,55Fe uptake,[6],Uptake occurred
"Scn-Ngal: Neutrophil Gelatinase Associated Lipocalin, recombinant, expressed in BL-21 bacteria (protein, UniProt P80188 21-198, looked up) Neutrophil …: QDSTSDLIPAPPLSKVPLQQNFQDNQFQGKWYVVGLAGNAILREDKDPQKMYATIYELKEDKSYNVTSVLFRKKKCDYWIRTFVPGCQPGEFTLGNIKSYPGLTSYLVRVVSTNYNQHAMVFFKKVSQNREYFKITLYGRTKELTSELKENFIRFSKSLGLPENHIVFPVPIDQCIDG",conversion of HPF to fluorescein (hydroxyl radical formation),[8],blocked the reaction
